ChEMBL document CHEMBL6153166, “Innovative Protein Degraders for Targeted Cancer and Viral Therapy” (ACS Med Chem Lett, 2025)

Target: Sequestosome-1 (Homo sapiens, UniProt Q13501)
Experiment: Inhibition of biotin-labeled Halo/His-tagged p62 (unknown origin) incubated for 30 mins by AlphaLISA competition assay

Chain of Sequestosome-1 (Q13501 whole entry): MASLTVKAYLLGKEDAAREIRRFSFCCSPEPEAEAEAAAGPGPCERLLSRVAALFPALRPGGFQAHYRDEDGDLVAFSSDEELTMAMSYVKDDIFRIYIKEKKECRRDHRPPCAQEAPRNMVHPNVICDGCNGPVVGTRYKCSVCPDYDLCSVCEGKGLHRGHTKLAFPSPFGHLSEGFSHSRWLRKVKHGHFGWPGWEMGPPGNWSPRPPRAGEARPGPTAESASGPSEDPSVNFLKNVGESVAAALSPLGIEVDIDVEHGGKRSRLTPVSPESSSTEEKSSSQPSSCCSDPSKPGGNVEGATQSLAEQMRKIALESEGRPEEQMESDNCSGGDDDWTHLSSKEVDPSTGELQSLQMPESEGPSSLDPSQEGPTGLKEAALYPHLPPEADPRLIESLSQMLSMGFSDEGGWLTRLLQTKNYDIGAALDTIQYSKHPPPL

IC50, ≤ 1.5 µM:
CCc1cc2c(cc1N1CCN(C(=O)CCCN3C[C@H](NC(=O)[C@@H](N)CCCn4ccnc4N)C4(CC4)C3)CC1)C(C)(C)C1Nc3cc(C#N)ccc3C1C2=O (stereo partly specified)
CCc1cc2c(cc1N1CCN(C(=O)CCCN3C[C@H](NC(=O)[C@@H](N)CCCc4cncnc4N)C(C)(C)C3)CC1)C(C)(C)C1Nc3cc(C#N)ccc3C1C2=O (stereo partly specified)
CCc1cc2c(cc1N1CCN(C(=O)CCCN3CCC(C)(C)C(NC(=O)[C@@H](N)CCCn4ccnc4N)C3)CC1)C(C)(C)C1Nc3cc(C#N)ccc3C1C2=O (stereo partly specified)
CCc1cc2c(cc1N1CCN(C(=O)CCCN3CC[C@@H](NC(=O)[C@@H](N)CCCn4ccnc4N)C3)CC1)C(C)(C)C1Nc3cc(C#N)ccc3C1C2=O (stereo partly specified)
CCc1cc2c(cc1N1CCN(C(=O)CCCN3C[C@H](NC(=O)[C@@H](N)CCCc4cccnc4N)C(C)(C)C3)CC1)C(C)(C)C1Nc3cc(C#N)ccc3C1C2=O (stereo partly specified)
CCc1cc2c(cc1N1CCN(C(=O)CCCN3C[C@H](NC(=O)[C@@H](N)CCCn4ccnc4N)C(C)(C)C3)CC1)C(C)(C)C1Nc3cc(C#N)ccc3C1C2=O (stereo partly specified)
